Molecules are shown by their SMILES.

The first series in a line: solvent given as SMILES. Conditions: in CCOC(C)=O.
As to `Cc1cc(C)c2c(c1)c1cc(C)cc(C)c1n2-c1ccc2c(c1)B(c1c(C(C)C)cc(C(C)C)cc1C(C)C)c1cc(-n3c4c(C)cc(C)cc4c4cc(C)cc(C)c43)ccc1N2c1ccccc1`, the emission maximum came out at 447.96 nm.

The same series, now with this note: in CCOCC.
`c1ccc2nc3cccc(-c4ccc(-n5c6ccccc6c6ccccc65)cc4)c3cc2c1` gave an emission maximum of 443 nm.

The same series, now with this note: in CN(C)C=O.
Consider `COc1ccc2c(c1)CCc1c-2nc(N)c(C#N)c1-c1ccc(Br)cc1`, for which the emission maximum was 423 nm. As to `COc1ccc(/C=N/c2cc(C(C)C)c(O)cc2C)cc1`, the emission maximum worked out at 413 nm. Regarding `CN(C)CCN(Cc1c2ccccc2cc2ccccc12)c1ccc([N+](=O)[O-])cc1`, the emission maximum came out at 389 nm.

In the case of `CC1=CC(C)=[N+]2C1=Cc1c3ccccc3c(C#Cc3ccsc3)n1[B-]2(F)F`, the emission maximum was determined as 623 nm.

Staying with this series, now noted: in CO.
`COc1ccc2c(c1)CCc1c-2nc(N)c(C#N)c1-c1ccc(Br)cc1`: the emission maximum is 418 nm. For the compound `N#CSC1=CC2=C(c3c(Cl)cccc3Cl)c3cc(SC#N)c(NCc4ccccc4)n3[B-](F)(F)[N+]2=C1NCc1ccccc1`, the emission maximum amounted to 646 nm.

`CC1=CC(C)=[N+]2C1=C(C)c1cccn1[B-]2(F)F`: the emission maximum was 497 nm.

On to `Cc1ccc(C2=C3C=CC(c4ccccc4)=[N+]3[B-](F)(F)n3c(Cl)ccc32)cc1`, for which the emission maximum amounted to 549 nm. With `O=c1oc2ccccc2c(O)c1C(CC(O)c1ccc(-c2ccc(Br)cc2)cc1)c1ccccc1` (configuration not stated), the emission maximum is 394 nm. `COc1ccc(/C=N/c2cc(C(C)C)c(O)cc2C)cc1` had an emission maximum of 417 nm. As for `COc1ccc(OC)c(C(=O)O)c1`, the emission maximum is recorded as 388 nm.

`CN(C)CCN(Cc1c2ccccc2cc2ccccc12)c1ccc([N+](=O)[O-])cc1` came in with an emission maximum of 389 nm. On to `CCCCCCc1cc(B(c2c(C)cc(C)cc2C)c2c(C)cc(C)cc2C)c(-c2sc(CCCCCC)cc2P(=O)(c2ccccc2)c2ccccc2)s1`, for which the emission maximum was determined as 605 nm.

The series is the same for the next values; noted with them: in CS(C)=O.
Regarding `COc1ccc2c(c1)CCc1c-2nc(N)c(C#N)c1-c1ccc(Br)cc1`, the emission maximum turned out to be 427 nm.

Compound `c1ccc(N(c2ccccc2)c2ccc(-c3nc(-c4ccc(N(c5ccccc5)c5ccccc5)cc4)c4ccccc4n3)cc2)cc1` displayed an emission maximum of 568 nm. `COc1ccc(/C=N/c2cc(C(C)C)c(O)cc2C)cc1` had an emission maximum of 417 nm.

The series is the same for the next values; noted with them: in Cc1ccccc1.
Turning to `N#Cc1c(-n2c3ccccc3c3cc(I)ccc32)c(C#N)c(-n2c3ccccc3c3cc(I)ccc32)c(-n2c3ccccc3c3cc(I)ccc32)c1-n1c2ccccc2c2cc(I)ccc21`, the emission maximum turned out to be 518 nm. In turn, `N#CC1=c2c3cccc4cccc(c43)n2[B-](F)(F)[n+]2ccccc21` displayed an emission maximum of 535 nm. With `Cc1ccc(C2=C3C=CC(c4ccccc4)=[N+]3[B-](F)(F)n3c(Cl)ccc32)cc1`, the emission maximum was found to be 558 nm. Regarding `c1ccc(-c2nc(-c3ccccc3)nc(-c3ccc(-n4c5ccccc5c5cc6c(cc54)c4ccccc4n6-c4ccccc4)cc3)n2)cc1`, the emission maximum came out at 478 nm. Same read-out and setting: as for `N#Cc1c(-n2c3ccccc3c3cc(Br)ccc32)c(C#N)c(-n2c3ccccc3c3cc(Br)ccc32)c(-n2c3ccccc3c3cc(Br)ccc32)c1-n1c2ccccc2c2cc(Br)ccc21`, the figure is 515 nm.

With `CCN1C(=O)C(C2C(=O)c3c4ccccc4cc4cc5ccccc5c2c34)C(=O)N(CC)C1=S` (configuration not stated), the emission maximum worked out at 564 nm. Compound `Cc1cc(C)c2c(c1)c1cc(C)cc(C)c1n2-c1ccc2c(c1)B(c1c(C(C)C)cc(C(C)C)cc1C(C)C)c1cc(-n3c4c(C)cc(C)cc4c4cc(C)cc(C)c43)ccc1N2c1ccccc1` showed an emission maximum of 441.5 nm.

The same series, now with this note: in ClC(Cl)Cl.
Compound `COc1ccc2c(c1)CCc1c-2nc(N)c(C#N)c1-c1ccc(Br)cc1` had an emission maximum of 415 nm. Take `COc1ccc(-c2cc3c(o2)=CC2=C(C(F)(F)F)c4cc5oc(-c6ccc(OC)cc6)cc5n4[B-](F)(F)[N+]=32)cc1`: the emission maximum amounted to 738 nm. For the compound `Cc1cccc(C2=Cc3c4ccccc4c4ccccc4[n+]3[B-](F)(F)O2)c1`, the emission maximum was 447 nm. The compound `COc1ccccc1-c1cc2c(o1)=CC1=Cc3cc4oc(-c5ccccc5OC)cc4n3[B-](F)(F)[N+]=21` showed an emission maximum of 680 nm.

For the compound `Cc1ccc(C2=C3C=CC(c4ccccc4)=[N+]3[B-](F)(F)n3c(Cl)ccc32)cc1`, the emission maximum is 555 nm. Compound `COc1ccc(/C=N/c2cc(C(C)C)c(O)cc2C)cc1` returned an emission maximum of 413 nm. In the case of `O=C1[C@@H]2[C@H](C(=O)N1c1ccc3cc4ccccc4cc3c1)[C@@H]1C=C[C@H]2C1`, the emission maximum is recorded as 386 nm. Still for that read-out and setting: as for `Oc1ccc(C2=[N+]3C(=C(c4ccccc4)c4cccn4[B-]3(F)F)C=C2)cc1`, the figure is 564 nm; as for `CCCCCCCCC1(CCCCCCCC)c2cc3c(cc2-c2sc(-c4ccc(/C=C5\SC(=S)N(CC)C5=O)c5nsnc45)cc21)C(CCCCCCCC)(CCCCCCCC)c1cc(-c2ccc(/C=C4\SC(=S)N(CC)C4=O)c4nsnc24)sc1-3`, 728 nm.

The compound `CN(C)CCN(Cc1c2ccccc2cc2ccccc12)c1ccc([N+](=O)[O-])cc1` came in with an emission maximum of 415 nm.

Staying with this series, now noted: in ClCCl.
`COc1ccc2c(c1)CCc1c-2nc(N)c(C#N)c1-c1ccc(Br)cc1` registered an emission maximum of 411 nm. Still for that read-out and setting: as for `C[Si]1(C)c2ccccc2-c2cc3c(cc21)-c1ccccc1[Si]3(C)C`, the figure is 384 nm; as for `c1ccc(N(c2ccccc2)c2ccc(-c3nc(-c4ccc(N(c5ccccc5)c5ccccc5)cc4)c4ccccc4n3)cc2)cc1`, 534 nm; as for `CCCCN1C(=O)C2=C(c3ccc(Br)cc3)NC(=O)C2=C1c1ccc(Br)cc1`, 531 nm.

`N#CSC1=CC2=C(c3c(Cl)cccc3Cl)c3cc(SC#N)c(NCc4ccccc4)n3[B-](F)(F)[N+]2=C1NCc1ccccc1` came in with an emission maximum of 656 nm.

The compound `CC1=CC(C)=[N+]2C1=C(C)c1cccn1[B-]2(F)F` gave an emission maximum of 500 nm. For the compound `N#CC1=c2c3cccc4cccc(c43)n2[B-](F)(F)[n+]2ccccc21`, the emission maximum was 530 nm. As to `Fc1ccc(C#Cc2c(C#Cc3ccc(F)cc3)c(C#Cc3ccc(F)cc3)c(C#Cc3ccc(F)cc3)c(C#Cc3ccc(F)cc3)c2C#Cc2ccc(F)cc2)cc1`, the emission maximum stood at 450 nm.

`N#CC(C#N)=Cc1ccc(-c2cccc(-c3nc4ccccc4s3)c2O)s1`: the emission maximum is recorded as 607 nm. On to `c1ccc2nc3cccc(-c4ccc(-n5c6ccccc6c6ccccc65)cc4)c3cc2c1`, for which the emission maximum is reported as 486 nm.

The compound `COc1ccc(C2=Cc3cc4ccccc4cc3P2(=O)c2ccccc2)cc1` (configuration not stated) came in with an emission maximum of 448 nm. `COc1ccc(/C=N/c2cc(C(C)C)c(O)cc2C)cc1` gave an emission maximum of 413 nm. Consider `CCCCN(CCCC)c1ccc(/C=C/c2ccc3nc(/C=C/c4nc5ccc(/C=C/c6ccc(N(CCCC)CCCC)cc6)cc5n(CCC)c4=O)c(=O)n(CCC)c3c2)cc1`, for which the emission maximum was determined as 736 nm. In the case of `CCN1C(=O)C(C2C(=O)c3c4ccccc4cc4cc5ccccc5c2c34)C(=O)N(CC)C1=S` (configuration not stated), the emission maximum is listed as 582 nm. `CC1=CC(C)=[N+]2C1=Cc1c3ccccc3c(C#Cc3ccsc3)n1[B-]2(F)F` gave an emission maximum of 628 nm.

Regarding `Cc1cc(C)c2c(c1)c1cc(C)cc(C)c1n2-c1ccc2c(c1)B(c1c(C(C)C)cc(C(C)C)cc1C(C)C)c1cc(-n3c4c(C)cc(C)cc4c4cc(C)cc(C)c43)ccc1N2c1ccccc1`, the emission maximum was 453.4 nm.

The series is the same for the next values; noted with them: in O.
In turn, `N#CC(C#N)=Cc1ccc(-c2cccc(-c3nc4ccccc4s3)c2O)s1` registered an emission maximum of 646 nm. `O=c1oc2ccccc2c(O)c1C(CC(O)c1ccc(-c2ccc(Br)cc2)cc1)c1ccccc1` (configuration not stated) yielded an emission maximum of 397 nm. With `COc1ccc(/C=N/c2cc(C(C)C)c(O)cc2C)cc1`, the emission maximum is on record as 440 nm.

The same series, now with this note: in O=P(c1ccccc1)(c1ccccc1)c1ccc2oc3ccc(P(=O)(c4ccccc4)c4ccccc4)cc3c2c1.
The compound `c1ccc(-c2nc(-c3ccccc3)nc(-c3ccc(-n4c5ccccc5c5cc6c(cc54)c4ccccc4n6-c4ccccc4)cc3)n2)cc1` yielded an emission maximum of 511 nm.

The same series, now with this note: in OCCO.
Turning to `COc1ccc(/C=N/c2cc(C(C)C)c(O)cc2C)cc1`, the emission maximum amounted to 426 nm.

The same series, now with this note: in c1cc(-c2cccc(-n3c4ccccc4c4ccccc43)c2)cc(-n2c3ccccc3c3ccccc32)c1.
Turning to `Cc1cc(C)c2c(c1)c1cc(C)cc(C)c1n2-c1ccc2c(c1)B(c1c(C(C)C)cc(C(C)C)cc1C(C)C)c1cc(-n3c4c(C)cc(C)cc4c4cc(C)cc(C)c43)ccc1N2c1ccccc1`, the emission maximum is 451 nm.
